Values quoted from earlier work in article PMC9387934, “Randomized single oral dose phase 1 study of safety, tolerability, and pharmacokinetics of Iminosugar UV-4 Hydrochloride (UV-4B) in healthy subjects” (PLoS Neglected Tropical Diseases, 2022).

Assays:
[1] = 212 obese patients treated for 36 months; cited from earlier work
[2] = 1108 patients, average of 6 months; cited from earlier work
[3] = doses of 100 mg TID or less; cited from earlier work
[4] = parameters: method as in Zavesca SmPC; conditions: ref Zavesca SmPC; cited from earlier work
[5] = dogs, 105 mg/kg/day given over 4 weeks; cited from earlier work
[6] = parameters: method as in FDA Advisory Briefing Book for Miglustat; conditions: humans, doses of up to 1000 mg TID; ref FDA Advisory Briefing Book for Miglustat; cited from earlier work
[7] = healthy male subjects; cited from earlier work
[8] = 300 mg BID; grade 3 transaminase, CK, and LDH elevations; cited from earlier work

C[C@H]1O[C@H](O[C@H]2[C@H](O)[C@@H](O)[C@@H](O[C@H]3[C@H](O)[C@@H](O)C(O)O[C@@H]3CO)O[C@@H]2CO)[C@H](O)[C@@H](O)[C@@H]1N[C@H]1C=C(CO)[C@@H](O)[C@H](O)[C@H]1O (some centres unmarked) [acarbose]
ALT elevations, share of patients [1]: 9% | Rates of ALT elevations versus placebo [2]: no different

CCCCN1C[C@H](O)[C@@H](O)[C@H](O)[C@H]1CO [miglustat, N-butyl-Deoxynojirimycin]
Association with AST and ALT elevations [3]: does not appear to be associated | NOAEL [4]: 20 mg/kg | Neurologic findings [5]: tremor and reduction or absence of corneal reflexes | Histamine-like findings as seen in rats [6]: no similar findings | AST elevations [7]: no AST elevations

CCCC(=O)O[C@H]1CN2CC[C@H](O)[C@@H]2[C@@H](O)[C@@H]1O [Celgosivir]
Outcome of safety and tolerability study [8]: prematurely discontinued
